The values that follow come from patent US20130053435A1, “Methods of Treating Alcohol Intoxication, Alcohol Use Disorders and Alcohol Abuse Which Comprises the Administration of Dihydromyricetin” (priority 2011, published 2013).

The test system of test [1] is EtOH withdrawal-induced tolerance in rats. Briefly: EtOH withdrawal-induced tolerance measured by acute EtOH-induced LORR. The class given is in vivo, rat. The settings on record: for LORR duration after 48 hr withdrawal: test EtOH 3 g/kg i.p.; for acute EtOH-induced LORR after 48 hr withdrawal: FIG. 12B. How it is done:
See Kakihana R, et al. (1966) Science 154(756):1574-1575). […] LORR duration ended when the animal was able to flip over three times in 30 s. LORR assays were blindly performed. LORR durations were reported as mean (min)±SEM.
After a 48 hr withdrawal period, EtOH-induced LORR assays (EtOH, 3 g/kg, i.p.) were performed.
48 hr after injection, rats were sub-divided into 3 groups to measure signs of EtOH withdrawal.
Tolerance to EtOH was measured with acute EtOH-induced LORR (in minutes, FIG. 12B). EtOH induced 63.6±7.0 LORR in the vehicle group subjects as compared to 10.8±3.8 LORR in EtOH group subjects.

Test [2] has as its system GABAAR α4 subunit. The test can be described thus: Cell-surface biotinylation and Western blot in cultured hippocampal neurons. The class given is cell-based, rat. The settings on record: 24 hr. Here is the method:
Western blots of the cultured neurons were performed and examined as described herein. Biotinylation assays for GABAARs of the cultured neurons were performed as described previously. See Chung W O, et al. (2000) Infect Immun 68(12):6758-6762. Briefly, the neurons in culture dishes were placed on ice and washed twice with ice cold PBS. Then the neurons were incubated for 30 min on ice with PBS containing 1 mg/ml sulfo-NHS-LC-biotin (ProteoChem). After quenching the biotin-reaction with Tris-buffered saline (TBS), neurons were lysed in 150 μl of modified RIPA-buffer (20 mM Tris-HCl (pH 7.5), 150 mM NaCl, 1 mM Na2 EDTA, 1 mM EGTA, 1% NP-40, 1% sodium deoxycholate, 2.5 mM sodium pyrophosphate, 1 mM b-glycerophosphate, 1 mM Na3VO4, and 1 μg/ml leupeptin). The homogenates were centrifuged for 15 min (14,000×g, 4° C.). An aliquot (10%) of the supernatant was removed to measure β-actin. The remaining supernatant was incubated with 60 μl of 50% neutravidin agarose (Pierce Chemical Company) for 4 hr at 4° C. and washed four times with lysis buffer. Agarose-bound proteins were taken up in 20 μl of SDS sample buffer and boiled. Western blots were performed as mentioned above.
The surface expression of α4 subunit in cultured neurons was measured using cell-surface biotinylation followed by Western blot analysis.

Test [3] has as its system GABAARs. Briefly: Whole-cell patch-clamp, DGCs in hippocampal slices 48 hr after in vivo treatment. Format: cell-based, rat. The following applies: 48 hr withdrawal. How it is done:
Transverse slices (400 μm) of dorsal hippocampus were obtained with a Vibratome (VT 100, Technical Products International, St. Louis, Mo.) and standard techniques known in the art. Slices were continuously perfused with artificial cerebrospinal fluid (ACSF). See Liang, J., et al. (2007) J Neurosci 27:12367-12377.
Whole-cell patch-clamp recordings were obtained at 34±0.5° C. from cells located in the DG layer at a holding potential of −70 mV, during perfusion with artificial cerebrospinal fluid (ACSF, 125 mM NaCl, 2.5 mM KCl, 2 mM CaCl2, 2 mM MgCl2, 26 mM NaHCO3, and 10 mM D-glucose). The ACSF was continuously bubbled with 95% O2-5% CO2 to ensure adequate oxygenation of slices and a pH of 7.4. Patch electrodes were pulled from thin-wall borosilicate glass pipettes with resistances of 7.5-9 MΩ and were filled with pipette solution (i.e. 137 mM CsCl, 2 mM MgCl2, 1 mM CaCl2, 11 mM EGTA, 10 mM HEPES and 3 mM ATP, pH adjusted to 7.30 with CsOH). Signals were recorded in voltage-clamp mode with a […] amplifier (Molecular Devices, Sunnyvale, Calif.). Whole cell access resistances were in the range of <25 MΩ before electrical compensation by about 70%. During voltage-clamp recordings, access resistance was monitored by measuring the size of the capacitative transient in response to a 5 mV step command and the data were abandoned if changes >20% were encountered. At least 10 min was allowed for equilibration of the pipette solution with the intracellular milieu before commencing mIPSC recordings. Intracellular signal was low-pass filtered at 3 kHz and data were acquired with Digidata 1440A and software CLAMPEX 10 (Molecular Devices) at a sampling frequency of 20 kHz.
Pharmacologically-isolated GABAAR-mediated mIPSCs were recorded as previously described (Liang (2007) and Shen (2011)). […] Data were analyzed using the Clampfit (Version 9.0, Molecular Devices) and the MiniAnalysis Program (versions 6.0.7, Synaptosoft, Decatur, Ga.).
The MiniAnalysis program (Synaptosoft, Decatur, Ga.) was used to analyze mIPSCs. Itonic is the averaged baseline currents of a given recording period. Itonic amplitude was calculated as the difference between the holding currents measured before and after picrotoxin (100 μM) or bicuculline (10 μM). See Wei, W., et al. (2004) J Neurosci 24, 8379-8382; Liang (2007); and Shen (2011). Briefly, the recordings were low-pass filtered off-line (Clampfit software) at 2 kHz. The mIPSCs were detected (Mini Analysis Program, version 6.0.7) with threshold criteria of 8 pA amplitude and 20 pA*ms charge transfer. The frequency of mIPSCs was determined from all automatically detected events in a given 100 s recording period. For kinetic analysis, only single event mIPSCs with a stable baseline, sharp rising phase (10 to 90% rise time), and exponential decay were chosen during visual inspection of the recording trace. Double and multiple peak mIPSCs were excluded. At least 100 individual mIPSC events were recorded under each experimental condition. The mIPSC kinetics was obtained from analysis of the averaged chosen single events aligned with half rise time in each cell. Decay time constants were obtained by fitting a double exponential to the falling phase of the averaged mIPSCs. Itonic magnitudes were obtained from the averaged baseline current of a given recording period. Itonic amplitude was calculated as the difference between the holding currents measured before and after the application of picrotoxin (50 μM) or bicuculline (10 μM). See Liang J et al (2007); Shen (2011); Hamann (2002); and Mangan P S, et al. (2005) Mol Pharmacol 67(3):775-788. The investigator performing the recordings and mIPSC analysis was blind to the treatment (vehicle, EtOH, E+D, or D) that the rats received.
After 48 hr withdrawal, whole-cell GABAAR-mediated currents were recorded on DGCs in hippocampal slices. In the vehicle group, bath application of EtOH (60 mM) enhanced Itonic from 28.8±3.1 to 62.1±3.3 pA (FIG. 13, panels A, G). […]

Values joined by “and” are separate entries in the source; they are usually repeats but may differ in a detail not shown here. Equal entries are not always repeated.

On to `O=C1c2c(O)cc(O)cc2O[C@H](c2cc(O)c(O)c(O)c2)[C@H]1O` [DHM, (2R,3R)-3,5,7-trihydroxy-2-(3,4,5-trihydroxyphenyl)-2,3-dihydrochromen-4-one], for which the “LORR duration after 48 hr withdrawal” value in test [1] (DHM 1 mg/kg i.p. alone) and in test [1] (i.p. EtOH 3 g/kg + DHM 1 mg/kg 30 min after EtOH) was 61 ± 4 min each time. The “acute EtOH-induced LORR after 48 hr withdrawal” value in test [1] (DHM group) was determined as 65.6 ± 8.4 min; in test [1] (EtOH+DHM (1 mg/kg) group) it was 61.0 ± 3.8 min. Further, the α4 surface expression in test [2] (neurons treated with DHM) is 125.0±27.3 % of control. For the same compound, the “α4 subunit surface expression” value in test [2] (neurons treated with EtOH+DHM) is reported as 123.0±8.4 % of control. The “mIPSC area after acute EtOH (60 mM)” value in test [3] (EtOH+DHM group) was found to be 0.78±0.02 nC. Besides, the “mIPSC area before acute EtOH” value in test [3] (EtOH+DHM group) was 0.70±0.03 nC. Also, the “Itonic before acute EtOH” value in test [3] (rats treated with EtOH (5 g/kg) + DHM (1 mg/kg)) is 30.0±2.8 pA and 27.9±3.0 pA. For the same compound, in test [3] (rats treated with EtOH + DHM (1 mg/kg)), the “Itonic after acute EtOH (60 mM)” value was 60.0±2.2 pA and 61.3±2.3 pA. For the same compound, the “mIPSC increase by acute EtOH (60 mM)” value in test [3] (rats treated with EtOH + DHM) amounted to 18.0±5.9%.
